Test results from patent US20230393148A1, “KITS, REAGENTS AND METHODS FOR THE ASSESSMENT OF LIVER DISEASES” (The General Hospital Corporation, priority 2020, published 2023).
* marks the point of attachment. Hexenoyl(3E) = CC/C=C/CC(=O)*

Tests used:
CASP8 = assay: Plasma CASP8 by Olink proximity extension assay, randomized trial of tesamorelin vs placebo; type: in vivo, human; conditions: HIV-associated NAFLD, tesamorelin 2 mg daily, change over 12 months, plasma NPX, mean ± SD, n = 20
Protocol: (§1) A randomized, double blind trial in which individuals with HIV-associated NAFLD were assigned to receive the growth hormone-releasing hormone (GHRH) analogue tesamorelin 2 mg daily or identical placebo for 12 months (7). […] Changes in circulating levels of proteins corresponding to top leading-edge genes in pathways responsive to tesamorelin between treatment groups were investigated, and the relationships of these proteins to histologic, radiographic, and transcriptomic indices was assessed to identify plasmatic markers of NAFLD/NASH and elucidate potential mechanisms of tesamorelin response.
(§2) 61 men and women 18-70 years old who had documented HIV infection and liver steatosis as defined by hepatic fat fraction ≥5% on ^1H-magnetic resonance spectroscopy (^1H-MRS) were enrolled. […]
(§3) Study procedures for the parent clinical trial have been described in detail elsewhere (7, 9). […] Serum IGF-1 was measured using standard techniques (Quest Laboratories).
(§4) For this analysis, change in targeted proteins over 12 months was assessed using an Olink® Multiplex proximity extension assay (PEA) platform. The PEA is an affinity-based assay that characterizes abundance levels of pre-determined sets of proteins. […] The resultant DNA sequence is detected and quantified using standard real-time PCR on the Fluidigm BioMark™ HD real-time PCR platform. […]

CCL20 = assay: Plasma CCL20 by Olink proximity extension assay, randomized trial of tesamorelin vs placebo; type: in vivo, human; conditions: HIV-associated NAFLD, tesamorelin 2 mg daily, change over 12 months, plasma NPX, mean ± SD, n = 20
Protocol: as §1, §2, §3, §4

CRTAM = assay: Plasma CRTAM by Olink proximity extension assay, randomized trial of tesamorelin vs placebo; type: in vivo, human; conditions: HIV-associated NAFLD, tesamorelin 2 mg daily, change over 12 months, plasma NPX, mean ± SD, n = 20
Protocol: as §1, §2, §3, §4

CSF1 = assay: Plasma CSF1 by Olink proximity extension assay, randomized trial of tesamorelin vs placebo; type: in vivo, human; conditions: HIV-associated NAFLD, tesamorelin 2 mg daily, change over 12 months, plasma NPX, mean ± SD, n = 20
Protocol: as §1, §2, §3, §4

CXCL12 = assay: Plasma CXCL12 by Olink proximity extension assay, randomized trial of tesamorelin vs placebo; type: in vivo, human; conditions: HIV-associated NAFLD, tesamorelin 2 mg daily, change over 12 months, plasma NPX, mean ± SD, n = 20
Protocol: as §1, §2, §3, §4

NCR1 = assay: Plasma NCR1 by Olink proximity extension assay, randomized trial of tesamorelin vs placebo; type: in vivo, human; conditions: HIV-associated NAFLD, tesamorelin 2 mg daily, change over 12 months, plasma NPX, mean ± SD, n = 20
Protocol: as §1, §2, §3, §4

TGFB1 = assay: Plasma TGFB1 by Olink proximity extension assay, randomized trial of tesamorelin vs placebo; type: in vivo, human; conditions: HIV-associated NAFLD, tesamorelin 2 mg daily, change over 12 months, plasma NPX, mean ± SD, n = 20
Protocol: as §1, §2, §3, §4

TNFRSF21 = assay: Plasma TNFRSF21 by Olink proximity extension assay, randomized trial of tesamorelin vs placebo; type: in vivo, human; conditions: HIV-associated NAFLD, tesamorelin 2 mg daily, change over 12 months, plasma NPX, mean ± SD, n = 20
Protocol: as §1, §2, §3, §4

VEGFA = assay: Plasma VEGFA by Olink proximity extension assay, randomized trial of tesamorelin vs placebo; type: in vivo, human; conditions: HIV-associated NAFLD, tesamorelin 2 mg daily, change over 12 months, plasma NPX, mean ± SD, n = 20
Protocol: as §1, §2, §3, §4

hallmark gene pathways = conditions: liver biopsy, pre- to post-treatment (12 months), tesamorelin versus placebo, GSEA FDR <0.05; cited from earlier work

## trans-3-hexenoyl-GHRH(1-44)-NH2 ({Hexenoyl(3E)}-YADAIFTNSYRKVLGQLSARKLLQDIMSRQQGESNQERGARARL-NH2) [Tesamorelin]
CASP8
  Log2-Fold change plasma CASP8: −0.37 ± 0.72
CCL20
  Log2-Fold change plasma CCL20: −0.28 ± 0.88
CCL20; listed as tesamorelin
  Log2-Fold change plasma CCL20: −0.28±0.88
CRTAM
  Log2-Fold change plasma CRTAM: −0.35 ± 0.73
CSF1
  Log2-Fold change plasma CSF1: −0.17±0.21
CSF1; listed as tesamorelin
  Log2-Fold change plasma CSF1: −0.17±0.21
CXCL12
  Log2-Fold change plasma CXCL12: −0.03 ± 0.18
NCR1
  Log2-Fold change plasma NCR1: −0.20 ± 0.52
TGFB1
  Log2-Fold change plasma TGFB1: −0.35±0.56
TGFB1; listed as tesamorelin
  Log2-Fold change plasma TGFB1: −0.35±0.56
TNFRSF21
  Log2-Fold change plasma TNFRSF21: −0.13 ± 0.22
VEGFA
  Log2-Fold change plasma VEGFA: −0.20±0.35
VEGFA; listed as tesamorelin
  Log2-Fold change plasma VEGFA: −0.20±0.35
Hallmark gene pathways
  13 hepatic gene sets involved in inflammation, tissue repair, and cell division, regulation with treatment: downregulated
  Hepatic gene set pertaining to oxidative phosphorylation, regulation with treatment: upregulated
